Assay results taken from PMC12257073 (Cancer Research Communications, 2025).
Like-named read-outs stand apart in the source and are kept apart here.

Assays:
TP53-mutated AML = conditions: cited from earlier work
[1] = Adverse events (treatment-related and all-cause) and dose-limiting toxicities, NCI CTCAE version 4.0; conditions: all treated patients, TP-0903 + decitabine
Protocol: The phase 1b portion of the study used a standard 3 + 3 dose-escalation design with a starting dose level 1 (DL1) of 37 mg oral daily TP-0903 (Supplementary Table S2) based on experience with 50 mg oral daily as a single agent in patients with solid tumors ([25]). Dose-limiting toxicities (DLT) were evaluated to establish the dose brought forward for an expansion cohort (phase 2). Seven patients were enrolled in the phase 1b study, which was completed in January 2021 with the decision to move forward with an expansion cohort of 37 mg oral daily. Across the phase 1b and phase 2 studies, 15 patients were enrolled and started on 37 mg TP-0903 oral daily on days 1 to 21 (group 1). […] One additional patient was enrolled at this time but was inadvertently started on 25 mg TP-0903 oral daily on days 1 to 21. […] In May 2021, an amendment was approved to allow enrollment of a new group 2 at 25mg oral daily on days 1 to 21 of TP-0903 (DL-1) in stage 2 of the phase 2 study.
Clinical response was assessed according to the modified 2017 European LeukemiaNet AML criteria ([26]). The primary endpoint was achievement of CR within six cycles of therapy. Secondary endpoints included toxicity, duration of response, OS, and the proportion of eligible patients who effectively transitioned to allogeneic stem cell transplantation. Exploratory endpoints included pharmacokinetics (PK), correlative genetic, and biochemical data; correlations between morphologic remission, spectral flow cytometry, and mutational remission; and duration of remission or survival. […] Adverse events (AE) were graded according to the NCI Common Terminology Criteria for Adverse Events version 4.0 ([27]).

For Nc1ncn([C@@H]2O[C@H](CO)[C@@H](O)[C@H]2O)c(=O)n1 [azacitidine], the “Median OS” value (TP53-mutated AML; TP53-mutated patients, azacitidine) is given as 7.9 months.
In the case of Nc1ncn([C@H]2C[C@H](O)[C@@H](CO)O2)c(=O)n1 [decitabine, reference compound], the “Serious AEs related to decitabine” value [1] is reported as “only one patient had a serious AE related to decitabine (grade 3 pneumonia)”.
In the case of c1cn2cc(-c3ccc4cn[nH]c4c3)nc(Nc3ccc(N4CCOCC4)cc3)c2n1 [entospletinib], the “CR + CRi rate” value (TP53-mutated AML; entospletinib and a 10-day course of decitabine, complex karyotype AML with a TP53 mutation) is given as 17.1% and the “Median OS” value (TP53-mutated AML; entospletinib combined with decitabine, patients with mutant TP53) is given as 6.5 months.
In the case of COCC1(CO)C(=O)C2CCN1CC2 (stereo not drawn) [eprenetapopt], the “Median OS” value (TP53-mutated AML; eprenetapopt combined with azacitidine) is listed as “less than 1 year” and the CR rate (TP53-mutated AML; eprenetapopt, mutant p53) is listed as at most 17%.
In the case of CC1(C)CCC(CN2CCN(c3ccc(C(=O)NS(=O)(=O)c4ccc(NCC5CCOCC5)c([N+](=O)[O-])c4)c(Oc4cnc5[nH]ccc5c4)c3)CC2)=C(c2ccc(Cl)cc2)C1 [venetoclax], the “Median OS” value (TP53-mutated AML; venetoclax added to HMAs, no difference vs HMA alone) is listed as “approximately 5.2 months”, the “CR + CRi rate” value (TP53-mutated AML; venetoclax added to HMAs) is listed as 55% and the “Median OS” value (TP53-mutated AML; venetoclax and azacitidine, TP53-mutated patients with poor-risk cytogenetics) is listed as 5.2 months. For the same compound, the “Median OS” value (TP53-mutated AML; venetoclax in combination with azacitidine, older or medically unfit patients with AML) was at most 17.5 months and the “CR + CRi rate” value (TP53-mutated AML; venetoclax plus azacitidine, patients with mutant TP53) was 55%.
For magrolimab, the “Median OS” value (TP53-mutated AML; magrolimab and azacitidine, TP53-mutated patients) is listed as 9.8 months.
